Laboratory results from US10328114B2, “Lung injury repair compositions and methods” (University of Iowa Research Foundation, priority 2015, dated 2019).
Entries after “also recorded” stand apart in the source; their conditions may differ. *: point of attachment. Myristoyl = CCCCCCCCCCCCCC(=O)*

What was measured:
[1] = test system: bleomycin induced lung inflammation; assay: Lung inflammation and cell death in bleomycin ALI model (BALF cell and neutrophil count, IL-1β, TUNEL); assay type: in vivo, mouse
Description: (§1) Animal protocols were approved by the Institutional Animal Care and Use Committee at the University of Iowa. C57BL/6 mice (Jackson Laboratories, Bar Harbor, Me.) were anesthetized followed by intratracheal instillation of: (A) Control (Ctrl): 1 μl of DMSO (Sigma, St. Louis, Mo.) plus 49 μl of PBS; (B) Bleomycin (Bleo): 1 μl of DMSO plus 49 μl of bleomycin (APP pharmaceuticals, LLC Schaumburg, Ill.) dissolved in PBS (4 U/kg); (C) Bleomycin/PKCζi (Bleo/PKCζi): 1 μg of PKCζi (Calbiochem EMD Biosciences, San Diego, Calif.) solubilized in 1 μl of DMSO plus 49 μl of bleomycin (4 U/Kg) dissolved in PBS (Calbiochem EMD Biosciences, San Diego, Calif.). After this treatment, all mice were instilled (50 μl) every 72 hours with 1 μl of DMSO plus 49 μl of PBS in the Ctrl and Bleo group or with 1 μg of PKCζi dissolved in 1 μl of DMSO plus 49 μl of PBS in the Bleo/PKCζi group for the duration of the experiment. Mice were treated for up to 6 weeks (FIG. 1A). All conditions had between 4 to 6 animals.
(§2) After dissection, immunofluorescence labeling was performed on frozen mouse lung tissue sections with polyclonal anti p-PKCζ (Santa Cruz Biotechnology, Dallas, Tex.) or monoclonal β4 antibody (Clone 346-11a, BD Biosciences, San Jose, Calif.) (23). In addition, Terminal deoxynucleotidyltransferase dUTP nick end labeling (TUNEL) staining was performed on week 1 mouse lung tissue sections (24).
(§3) Bronchoalveolar lavage was performed as previously described (18). Total cell count was examined by hemocytometer and the percent of neutrophils cells in the bronchoalveolar lavage fluid (BALF) by cytospin slides stained with Wright's-Giemsa. Total protein concentration was measured by Bradford assay (Bio-Rad, Hercules, Calif.).
Mouse IL-1β and active transforming growth factor beta (TGFβ) were measured using an ELISA from R&D Biosystems (Minneapolis, Minn.).

[2] = test system: bleomycin induced ALI mouse model; assay: Lung compliance (flexiVent) in bleomycin ALI model; assay type: in vivo; conditions: for lung compliance, PKC-ζi instilled post injury: measured at one week; for lung compliance: week 1 post injury, PKCζi given with bleomycin and every 72 hours
Description: (4) PKC-ζi partially preserves lung compliance. Briefly, trachea was surgically exposed and tracheal cannula (18 gauge, Angiocath, Becton Dickinson, Sandy, Utah, USA) placed and secure in the lumen. The mice were paralyzed using intraperitoneal rocuronium (1 mg/Kg) to prevent spontaneous breathing and mechanically ventilated on a computer controlled respirator (flexiVent, SCIREQ Inc., Montreal, Canada). The ventilator was set up to deliver tidal volume 6 ml/kg for 10 minutes; respiratory rate of 150 breaths/min; 3 cmH2O positive end expiratory pressure (PEEP). The compliance was determined using the maneuver Pressure-volume ramp volume regulated (PVrV) to calculate the Quasi-static compliance. […] Since lung compliance is the product of an intact epithelial barrier and surfactant production, and PKCζ have been reported to be involved in surfactant production (Gobran et al., (1998). “PKCζ isoforms and other signaling proteins involved in surfactant secretion in developing rat type II cells.” Am J Physiol 274(6 Pt 1): L901-907), the inventors decided to examine by Western blot analysis total amount of SPC in BALF. […] Therefore, our results are likely due to preservation of the alveolar epithelial barrier.
(7) Treatment of mice with PKC-ζi after initial injury continues to be effective in preserving lung compliance. Since the majority of clinical scenarios involve the treatment of patients with established ALI, we set out to examine the effect of PKC-ζi post injury by instilling 6 and 24 hours after bleomycin instillation. Lung compliance was measured at one week.
as §1
Mice were anesthetized, paralyzed and lung function assessed with the flexiVent Legacy. (SCIREQ Inc., Montreal, Canada).

[3] = test system: bleomycin induced ALI mouse model; assay: BALF total protein concentration (alveolar-capillary permeability), Bradford assay; assay type: in vivo; conditions: week 1 post injury
Description: as §1, §3

[4] = test system: bleomycin induced ALI mouse model; assay: Lung collagen deposition (hydroxyproline assay, Masson's trichrome) in bleomycin ALI model; assay type: in vivo; conditions: for lung fibrosis / lung injury resolution, biochemical and histological evidence: active TGF β, hydroxyproline, Masson staining
Description: as §1
The collagen content in the lung homogenates was determined with a hydroxyproline assay, as described previously (26). In addition, lung collagen deposition was examined in lung sections stained with Masson's trichrome.

[5] = test system: DLEP integrin β4^+ cells; assay: DLEP integrin β4+ cells in mouse lungs by immunofluorescence after bleomycin injury; assay type: in vivo
Description: (§4) (8) PKC-ζi promotes proliferation of distal lung epithelial progenitor cells. Recently Chapman et al reported that integrin α6β4 identifies a population of lung cells with regenerative potential in mice (Chapman et al. (2011). “Integrin alpha6beta4 identifies an adult distal lung epithelial population with regenerative potential in mice.” J Clin Invest 121(7): 2855-2862). Furthermore, Li et al, reported same population in human lungs (Li et al. (2013). “Integrin alpha6beta4 identifies human distal lung epithelial progenitor cells with potential as a cell-based therapy for cystic fibrosis lung disease.” PLoS One 8(12): e83624). Therefore, the inventors set out to examine by immunofluorescence the presence of these cells in mouse lungs at 3 and 6 weeks after bleomycin treatment. […] In addition, the inventors isolated mouse α6β4 cells and treated them for 2 weeks with PKC-ζi ([…]).
as §1, §2

[6] = test system: integrin β4^+ DLEP cells; assay: Isolated integrin β4+ DLEP cell colony proliferation in matrigel; assay type: cell-based, mouse; conditions: for number of β4+ colonies: PKCζi 520 nM, two weeks, media with 20% BALF from bleomycin injured mice, vs PBS and DMSO
Description: as §4
Integrin β4^+ cells were isolated using flow cytometry and were seeded in matrigel as previously described with modifications (23). Cells were grown for two weeks in the presence of PBS, DMSO (1:1000) or PKCζi (1:1000, 520 nM final concentration PKC). In order to recreate the microenvironment, the media was supplemented with 20% BALF from bleomycin treated mice from week 1 similar to previously described (4).
To test the hypothesis that PKCζ can promote proliferation of β4^+ DLEP cells, integrin β4^+ cells were isolated and the media was supplemented with BALF from bleomycin treated mice from week 1 in the presence of PBS, DMSO or […], in order to recreate the microenvironment in a similar approach as Vaughan and colleagues (4). […] As shown in FIGS. 5 C & D, PKCζi increased proliferation of DLEP integrin β4^+ cells in vitro compared to control.

Which results are given for “N-Myristoyl-Ser-Ile-Tyr-Arg-Arg-Gly-Ala-Arg-Arg-Trp-Arg-Lys-Leu-OH (Myristoyl-SIYRRGARRWRKL-OH; SMILES CCCCCCCCCCCCCC(=O)N[C@@H](CO)C(=O)N[C@H](C(=O)N[C@@H](Cc1ccc(O)cc1)C(=O)N[C@@H](CCCNC(=N)N)C(=O)N[C@@H](CCCNC(=N)N)C(=O)NCC(=O)N[C@@H](C)C(=O)N[C@@H](CCCNC(=N)N)C(=O)N[C@@H](CCCNC(=N)N)C(=O)N[C@@H](Cc1c[nH]c2ccccc12)C(=O)N[C@@H](CCCNC(=N)N)C(=O)N[C@@H](CCCCN)C(=O)N[C@@H](CC(C)C)C(=O)O)[C@@H](C)CC) [PKCζi]”?
bleomycin induced inflammatory response ([1]; Example 1): did not prevent increase in inflammatory response; apoptotic cells by TUNEL+ staining ([1]; week 1 lung sections): did not prevent the increase in apoptotic cells by TUNEL^+ staining; BALF cell count ([1]; week 1 post injury): neither prevented the increase in BALF cell and neutrophil count; BALF neutrophil concentration / count ([1]; week 1 post injury): neither prevented the increase in BALF cell and neutrophil count; also recorded: does not decrease bleomycin induced increase in the BALF neutrophil concentration; IL-1β in BALF ([1]; week 1 post injury): nor prevented the increase in IL-1β concentration; also recorded: does not decrease IL-1β release into BALF; lung compliance, PKC-ζi instilled post injury ([2]; instillation 6 hours after bleomycin): prevented the decrease in lung compliance; lung compliance, PKC-ζi instilled post injury ([2]; instillation 24 hours after bleomycin): no protective effect; lung compliance [2]: partial but statistically significant prevention in the lung compliance decrease compared to bleomycin alone group; also recorded: preserves lung compliance compare to bleomycin; lung compliance ([2]; listed as PKC-ζi): partially preserve lung compliance compared to control; BALF protein concentration [3]: prevented the increase in mice BALF protein concentration compared to bleomycin group; also recorded: prevents increase in BALF protein concentration in bleomycin treated mice; BALF protein concentration ([3]; listed as PKC-ζ inhibitor): prevents increased protein content in BAL in bleomycin induced ALI; collagen lung deposition by Masson's staining ([4]; FIG. 4C, printed as week 3): decreased collagen lung deposition by masson's staining at week 3 compared to bleomycin group; hydroxyproline content, PKCζi only during the first week ([4]; measured at week 6): increase hydroxyproline content similar to Bleomycin alone group at week 6; histological lung collagen deposition ([4]; three weeks after bleomycin, Example 1): histological evidence of lung collagen deposition; lung hydroxyproline concentration ([4]; week 3 post injury): no difference in active TGF β and hydroxyproline concentrations compared to bleomycin group; also recorded: does not decrease hydroxyproline concentration; lung hydroxyproline concentration ([4]; week 3 post injury, listed as PKC-ζi): high concentrations of hydroxyproline; lung fibrosis / lung injury resolution, biochemical and histological evidence ([4]; week 6): demonstrated lung injury resolution in the PKCζi treated group; lung fibrosis / lung injury resolution, biochemical and histological evidence ([4]; week 6, listed as PKC-ζi): total resolution of lung fibrosis in the PKC-ζi treated group; lung hydroxyproline concentration ([4]; week 6, continuous PKCζi treatment): decreased hydroxyproline concentration at week 6 compare to bleomycin group; number of lung DLEP integrin β4+ (α6β4) cells ([5]; week 3 after bleomycin): an increase in DLEP integrin β4^+ cells in the PKCζi treated mice at week 3; number of lung DLEP integrin β4+ (α6β4) cells ([5]; week 3 after bleomycin, listed as PKC-ζi): an increase trend in α6β44 in the PKC-ζi treated mice; number of lung DLEP integrin β4+ (α6β4) cells ([5]; week 6 after bleomycin): became statistically significant at week 6; also recorded: increased number of lung DLEP integrin β4^+ cells compared to bleomycin group at week 6; number of lung DLEP integrin β4+ (α6β4) cells ([5]; week 6 after bleomycin, listed as PKC-ζi): became significant at 6 weeks; number of isolated mouse α6β4 cells ([6]; Example 1, treated for 2 weeks, concentration not given, vs DMSO): increased the number of α6β4 cells compared to DMSO treated cells; number of β4+ colonies [6]: increased number of large colonies compared to either DMSO or the PBS group; number of β4+ colonies ([6]; listed as PKC-ζi): increased the number of β4^+ colonies compared to PBS and DMSO at week 2
